Laboratory results taken from patent US4120864A, “1,2,4-4H-triazole derivatives” (Rohm and Haas Company, priority 1972, dated 1978).
Like-named read-outs stand apart in the source and are kept apart here.

How the values were obtained:
[1] = tested on: wheat leaf rust, Puccinia recondita; format: in vivo
[2] = tested on: wheat leaf rust, Puccinia recondita; assay: whole plant or invertebrate; format: in vivo; conditions: foliar
Pythium ultimum = conditions: in vivo
[3] = tested on: wheat leaf rust, Puccinia recondita; assay: Foliar systemic activity on leaf rust; format: in vivo
Excerpt: Another type of systemic test was run in which pots of approximately 5 inch high wheat plants were sprayed with varying concentrations of the test compound. Thirty-six hours later they were sprayed six minutes in a rain machine which amounted to about one inch of normal rainfall. The plants were then placed in a greenhouse for 7 days and then inoculated with a spore suspension of wheat leaf rust, Puccinia recondita. About 7 days later lesion counts were made on ten leaves representing the sprayed leaves and new growth from each replicate and compared with similar pots of wheat plants which were untreated with a chemical and the percent disease control determined. Disease control on the new growth is a measure of systemic activity. The commercial product known by the trademarked name Plantvax, which is 2,3-dihydro-5-carboxanilido-6-methyl-1,4-oxathiin-4,4-dioxide, was used as a standard.

[4] = tested on: wheat leaf rust, Puccinia recondita; assay: whole plant or invertebrate; format: in vivo; conditions: foliar; remark: listed apart in the source

Compound: CCCCn1cnnc1SC(=O)c1ccc(OC)cc1 [Example 121, 3-(4-methoxybenzoylmercapto)-4-n-butyl-1,2,4-triazole]
- % Systemic Wheat Leaf Rust Control ([1]; 2.5 ppm in soil): 98%
- % Systemic Wheat Leaf Rust Control ([1]; 5 ppm in soil): 100%
- % Systemic Wheat Leaf Rust Control ([1]; 10 ppm in soil): 100%
- pest or weed control at 280.212 g/ha ([2]; read-out: % Control (without rain), foliar, 0.25 lb.): 90%
- pest or weed control at 1120.85 g/ha ([2]; read-out: % Control (without rain), foliar, 1 lb.): 98%
- control of Pythium ultimum (Pythium ultimum): excellent control
- % Rust Control, New growth ([3]; 1/2 lb./100 gal.): 92%
- % Rust Control, Sprayed Leaf ([3]; 1/2 lb./100 gal.): 95%
- % Rust Control, New growth ([3]; 1/6 lb./100 gal.): 79%
- % Rust Control, Sprayed Leaf ([3]; 1/6 lb./100 gal.): 81%
- % Rust Control, New growth ([3]; 1/12 lb./100 gal.): 77%
- % Rust Control, Sprayed Leaf ([3]; 1/12 lb./100 gal.): 91%
- pest or weed control at 280.212 g/ha ([4]; read-out: % Control (with 1" of rain), foliar, 0.25 lb., 1" of rain): 100%
- pest or weed control at 1120.85 g/ha ([4]; read-out: % Control (with 1" of rain), foliar, 1 lb., 1" of rain): 100%
